PMC2361176, “Inhibitory effects of retinoic acid metabolism blocking agents (RAMBAs) on the growth of human prostate cancer cells and LNCaP prostate tumour xenografts in SCID mice” (British Journal of Cancer, 2006)

What was measured:
Bad = test: Western-blot analysis of Bad in LNCaP cells; assay type: cell-based, human; details: 5 and 10 μM, P<0.05
Protocol: The Western-blot protocol described for cytokeratins 8/18 was followed with some exceptions. Cell lysates (50 μg) were separated on a 15% SDS–PAGE gel. All washing was performed using TBS containing 1% Tween 20 (TBS-T). Blocking was performed using 5% milk in TBS-T. Incubations were performed using rabbit monoclonal IgG antibody to Bad and Bcl-2 (1 : 1000), as well as horseradish peroxidase-linked anti-rabbit IgG antibodies (1 : 2000) (Cell Signaling Technology, Beverly, MA, USA).

[1] = tested on: MCF-7 human breast cancer model; set-up: method as in Patel et al, 2004, 2006; details: ref Patel et al, 2004, 2006; cited from earlier work
T47D cells = tested on: T47D cells; set-up: method as in Patel et al, 2004; details: cellular assay; ref Patel et al, 2004; read-out: IC50, inhibition of ATRA metabolism in T47D cells; cited from earlier work
CYP26 = molecular target: T1, CYP26 (Homo sapiens, UniProt O43174); test: Cellular microsomal CYP26 assay (ATRA metabolism of microsomes prepared from T47D cells); assay type: biochemical
T1 construct: LNCaP cells were incubated with 1 μM ATRA for 24 h to induce the CYP26 enzyme; endogenous in cells; host or cells: LNCaP human prostate cancer cells, pre-treated with 1 μM ATRA
T1 sequence (O43174 1-497): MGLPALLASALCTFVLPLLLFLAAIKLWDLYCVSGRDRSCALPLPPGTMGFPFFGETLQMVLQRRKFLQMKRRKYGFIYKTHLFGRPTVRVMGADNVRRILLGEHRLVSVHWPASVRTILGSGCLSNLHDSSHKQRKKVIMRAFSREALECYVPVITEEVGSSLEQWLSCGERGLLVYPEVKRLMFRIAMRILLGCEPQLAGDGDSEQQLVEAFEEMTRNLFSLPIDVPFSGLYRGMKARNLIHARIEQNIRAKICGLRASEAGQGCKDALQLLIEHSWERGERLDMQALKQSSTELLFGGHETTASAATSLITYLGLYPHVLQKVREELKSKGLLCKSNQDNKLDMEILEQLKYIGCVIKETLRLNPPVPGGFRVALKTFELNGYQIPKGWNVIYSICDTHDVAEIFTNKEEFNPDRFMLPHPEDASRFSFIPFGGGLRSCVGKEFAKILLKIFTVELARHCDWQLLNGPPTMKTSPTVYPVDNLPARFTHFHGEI

## CC1=C(/C=C/C(C)=C/C=C/C(C)=C/C(=O)O)C(C)(C)CCC1 [ATRA, all-trans-retinoic acid, reference compound]
Bad
  Bad expression compared with control: significant increase

## CC1=C(/C=C/C(C)=C/C=C/C(C)=C/C(=O)O)C(C)(C)CCC1n1ccnc1 (centres unmarked) [VN/14-1]
[1]
  antitumour efficacy: excellent antitumour efficacy

## CC1=C(/C=C/C(C)=C/C=C/C(C)=C/C(=O)n2ccnc2)C(C)(C)CCC1n1ccnc1 (centres unmarked) [VN/50-1]
T47D cells
  IC50: 10 nM
CYP26; microsomal vs cellular IC50
  fold higher potency in microsomes compared to the cellular IC50 value: ~13 fold
CYP26; microsomes, read-out: IC50, inhibition of ATRA metabolism of microsomes prepared from T47D cells previously exposed to ATRA
  IC50: 7 ± 1.2 nM
